The subject of one data set is mice with DSS colitis. In words: Dextran sulfate sodium (DSS) colitis. Type of data set: in vivo, mouse. The source says:
This model was selected because it has become commonly accepted as a mouse model of colitis and is quite practical to employ, since it simply involves adding DSS to the drinking water (Moteau O. et al., 2000, Williams K L et al. 2001, Andres P G et al., 2000, Mahler M. et al., 1998, Tesser T G et al., 1998).

For data set [1], the system named is mice infected with C. rodentium. Description: C. rodentium colitis. Type of data set: in vivo. The settings on record: for Inhibition of mortality vs water alone: 1% L-Arg in drinking water; for Colon wt (% Total Body wt) / Histology Score / Body wt (% Total Body wt): 10 days; for Body wt (% Total Body wt): 0.1% BEC or 2.5% DFMO. The text has this: C. rodentium colitis: Of the two existing mouse models (Gobert A P et al., 2004; Cheng Y. et al., 2003), the C. rodentium model was selected because it produces a Th1-predominant mucosal inflammation that has histologic changes similar to human IBD (Higgins L M et al., 1999). In this model, mice are infected by oral gavage with C. rodentium (Gobert A P et al., 2004), a gram negative pathogenic bacterium that is the rodent equivalent of enteropathogenic E. coli that causes diarrhea in humans.
Since arginase I and iNOS were both abundantly expressed in the colitis tissues and L-Arg was completely metabolized, we investigated the effect of administration of 1% L-Arg in the drinking water. In wild type (WT) mice, C. rodentium colitis induced a high level of mortality that began on day 9 post-infection (FIG. 31A). In WT animals treated with L-Arg, mortality was inhibited by 42% and 62% compared to mice receiving water alone, after 12 and 14 days of infection, respectively (FIG. 31A). By Cox regression analysis, WT mice treated with L-Arg had only a 31% hazard of death compared with mice receiving water alone (p<0.0009). In iNOS^−/− mice, no deaths were observed, with or without L-Arg (FIG. 31A). […] Note that the weight loss of WT mice is underestimated, since only the weights of animals still alive could be included. […] There was an additive effect of iNOS deletion and L-Arg administration, with a 68% decrease in colon weight. Neither iNOS deletion nor L-Arg treatment affected colon weight in uninfected control mice. Importantly, these changes were closely paralleled by changes in colon histology (FIG. 32).
In uninfected control mice, BEC or DFMO had no effect (Table I). […] In fact, experiments had to be terminated early at 10 days post-infection, because of deaths and severe disease at this point.

The subject of a further data set is peritoneal macrophages. Description: Peritoneal macrophage production of NO, TNFα and IL-6 induced by MOG or LPS/IFN-γ. Type of data set: cell-based, mouse. On the procedure: For this purpose, three mice with clinical scores of 0 and three with clinical scores of 4 at 30 dpi (day post-immunization) were used for preparation of peritoneal macrophage cultures. Macrophages were collected after peritoneal lavage with 3 ml heparin (10 U/ml)-containing PBS and then seeded to 96-well microplates at a density of 1×10^5 cells/well in Dulbecco's MEM containing 10% fetal bovine serum, 2 mM L-glutamine serum, 1% HEPES and 100 U/ml penicillin and 100 μg/ml streptomycin, 37° C. in a humidified incubator with 5% CO2. 24 h later, the serum-containing medium was removed and cells were washed once with serum-free medium. To examine the differentiated response of macrophage to immune stimulators, macrophages obtained from mice with clinical scores of 0 or 4 were exposed to serial concentrations of IFN-γ/LPS or MOG35-55 peptide. […] Media were collected at 45 h or 72 h, and analyzed by ELISA for […] and IL-6 or for nitric oxide (NO) as detailed below.
As the stable end product of nitric oxide release, nitrite levels in conditioned media were determined by injecting 50 μl media sample into a Sievers 280 NOA analyzer (Boulder, Colo., USA). Total protein (μg/well) was measured using the BCA method (Pierce, Rockford, Ill., USA) according to manufacturer's instructions with BSA as standard. BCA values were measured using a Molecular Devices Thermomax Microplate Reader (Menlo Park, Calif., USA) at OD562. Nitric oxide levels ere expressed as μM NO2—/mg protein.
For cytokine assays, supernatants were collected 45 h after […]/LPS or MOG treatments and quantitative ELISAs using selected pairs of monoclonal antibodies (as recommended by the manufacturer Biosource) were performed to quantify the cytokines, TNF-α and IL-6. For TNF-α ELISA, 96-well ELISA plates were pre-coated with rabbit anti-mouse polyclonal to TNF-α as capture antibodies for 18 h at 2-8° C. and then blocked for 2 h at room temperature. The wells were incubated with samples or mouse TNF-α standards. Following incubation for 2 h at room temperature, the wells were washed, after which hamster anti-mouse TNF-α biotinylated secondary antibody and horseradish peroxidase conjugate were added. Tetramethylbenzidine (TMB) solution was then added, and peroxidase-catalyzed color change was stopped by acidification with 2 NH2SO4. The plates were scanned at wavelength 450 nm and the absorbance were measured. The results are expressed as the mean concentration (pg/ml) ±SEM.
For IL-6 ELISA, rat anti-mouse monoclonal to IL-6 was used as capture antibody, and biotinylated rat anti-mouse monoclonal to IL-6 as detection antibody. The rest of procedure is identical to that of TNF-α ELISA.

Data set [2] relates to C57BL/6J mice with MOG-induced EAE. In words: MOG-induced experimental autoimmune encephalomyelitis (EAE). As for the experimental part:
EAE was induced in mice following the method of Feinstein et al. (Feinstein, Galea, et al. 2002) 1) two s.c. injections, one on each flank of the hind legs with 300 μg MOG35-55 peptide in 0.1 ml PBS emulsified in an equal volume of CFA containing 5 mg/ml of Mycobacterium tuberculosis H37RA (Difco, St. Louis, Mo.) were given on Day 0.2) Pertussis toxin (200 ng per mouse in 0.1 ml PBS) was given i.p. immediately and 48 h after first MOG injection. 3) a booster immunization with an identical emulsion, route of administration and location was given on Day 7.
Following the encephalitogenic challenge, mice were monitored daily and neurological impairment was evaluated by clinical score (C.S.) as follows: 0, no clinical signs of EAE; 1, limp tail; 2, flaccid tail and abnormal gait (ataxia and/or paresis of hind limbs); 3, severe hind limb paresis; 4, complete paralysis with hind body; and 5, moribund or death.
Mice were anesthetized, bled, and perfused with 25 ml PBS and 25 ml 4% paraformaldehyde in buffered PBS. Brains and spinal cords were dissected out from 3 mice with a clinical score of 0 and another 3 mice with a clinical score of 4 on day 30 post-immunization. Tissues were post-fixed in 4% paraformaldehyde for another 24 h and then stored in 1×PBS with 0.1% sodium azide. Fixed tissues were embedded in paraffin and 5 μm thick sections were cut from brain, the brain stem and three different levels of spinal cord (cervical, thoracic and lumbar). Sections were stained with hematoxylin/eosin for evidence of inflammation and Luxol fast blue (for demyelination). The severity of inflammation was evaluated using the following criteria: 0, no inflammation; 1, cellular infiltrates only in the perivascular areas and meninges; 2, mild cellular infiltrates only in parenchyma (1-10/section); 3, moderate cellular infiltrates in parenchyma (11-100/section); 4, marked cellular infiltrates in parenchyma (>100 section).
In total, 10 doses of peptides were given.

Another data set deals with BV2 microglial cells. On the procedure:
For suppression of inflammation profiling, each peptide analog was tested at a final concentration of 0.1, […], 1, 3, 5, 10 and 25 μM in an LPS induced BV2 microglial cell release of NO and/or TNFα. […] The modification was a biotin label on the apoE peptide (biotin-[…]-amide) which allows detection with ^125I-streptavidin (ISA, Amersham).
In overview, BV-2 cells are plated in 96 well plates in complete media and then the media is replaced the next day with serum free media or reduced serum (1%) media. […] Each concentration of peptide (standard initial concentrations are 0.1, 0.5, 1, 3, 10 and 25 μM) is added to at least 6 wells of cells (e.g. 6 wells get 0.1 μM peptide, 6 wells get 0.5 μM peptide, etc.) and data are averaged from all 6 wells. […] (2001). Cell viability is also measured with an MTT assay (Laskowitz et al. 2001).

Marks after values point to notes of the source that are not given here.

For `N=C(N)NCCC[C@H](N)C(=O)O` [L-Arg], the “Clinical parameters of DSS colitis” value in the data set on mice with DSS colitis (L-Arg (1%)) is “reduction in clinical parameters of colitis”. For the same compound, in the data set with mice with DSS colitis (mouse, in vivo), the “Colonic polyamine levels in DSS colitis” value was “enhanced polyamine levels”. The “Inhibition of mortality vs water alone” value in data set [1] (WT mice, 12 days of infection) was 42%; in data set [1] (WT mice, 14 days of infection), 62%. The “Hazard of death compared with water alone (Cox regression)” value in data set [1] (WT mice, p<0.0009) was 31%. Moreover, the “Decrease in colon weight” value turned out to be 28% in data set [1] (infected WT mice) and 68% in data set [1] (infected iNOS−/− mice given L-Arg). The Weight loss result in data set [1] (infected WT mice) is “reduced weight loss”. Moreover, in data set [1] (infected WT mice treated with L-Arg), the “Increase in colonic ODC activity” value was determined as 40 fold. For the same compound, the “Increase in colonic polyamines” value in data set [1] (infected WT mice with L-Arg treatment) worked out at 2.7±0.2 fold. In addition, in data set [1] (real-time PCR), the “IFN-γ, TNF-α and IL-1 mRNA in colitis tissues” value is recorded as “significant attenuation of these increases”.

Turning to `N[C@@H](CSCCB(O)O)C(=O)O` [BEC, S-(2-boronoethyl)-L-cysteine], the “Clinical and histologic parameters of DSS colitis” value with mice with DSS colitis (WT and iNOS−/− mice, data not shown) was “exacerbation of clinical and histologic parameters of colitis”. Moreover, in data set [1] (WT mice, C. rodentium), the “Colon wt (% Total Body wt)” value is 1.25 ± 0.07^b,d % Total Body wt, the “Histology Score” value is 9.25 ± 0.69^b,d and the “Body wt (% Total Body wt)” value is given as 82.4 ± 5.2^a,c % Total Body wt. Besides, in data set [1] (WT mice, PBS (uninfected)), the “Colon wt (% Total Body wt)” value stood at 0.42 ± 0.04 % Total Body wt, the “Histology Score” value came to 0.67 ± 0.17 and the “Body wt (% Total Body wt)” value amounted to 110.1 ± 2.2 % Total Body wt. In data set [1] (iNOS−/− C. rodentium-infected mice + BEC, n=8, p<0.01), the “Colon histologic injury score” value is 6.44±0.98. In addition, in data set [1] (iNOS−/− C. rodentium-infected mice + BEC, p<0.05), the Colon weight is given as 0.92±0.20 % of total body weight. Also, in data set [1] (in the drinking water), the “Effect in uninfected control mice” value is “had no effect” and the “Survival of C. rodentium-infected mice” value was “significant loss of survival”.

On to “LLRKRLKRLHSALRVRL (Reverse of COG133) [Reverse Pep.]”, for which the “LPS/IFN-γ-induced production of NO, TNFα and IL-6” value with peritoneal macrophages (COG133 at 1 μM rather than at 5 μM, P<0.05) was “failed to inhibit this production”. In addition, the “MOG-induced production of NO and TNFα” value with peritoneal macrophages (macrophages from C.S. 4 mice, 72 h after MOG 20 μg/ml) is “did not display such an inhibitory effect”. In data set [2] (1 mg/kg i.v., 10 doses), the “Clinical severity of EAE” value is “did not improve the behavioral symptoms of EAE”, the Incidence was 10/10 and the Mortality was 3/10. The Day of onset in data set [2] (1 mg/kg i.v., 10 doses Day 6-22, mean ± SEM) is 17.3 ± 1.12. Further, the Mortality in data set [2] (1 mg/kg i.v., 10 doses, listed as reverse peptide) was 5 of 15. For the same compound, the Mean maximum score in data set [2] (clinical score 0-5, mean ± SEM) is on record as 3.9 ± 0.31. Moreover, in the data set with BV2 microglial cells, the “Suppression of NO and/or TNFα release from LPS treated BV2 cells” value is “lacked bioactivity”.

These data come from patent US20090042783A1, “APO E ANALOGS AND METHODS FOR THEIR USE” (priority 2004, published 2009).
